Experimental data published in patent US9050330B2, “Method, composition and kit for treating frequent headaches” (priority 2012, dated 2015).

Assays:
[1] = tested on: sphenopalatine ganglion; details: cited from earlier work; for duration of anesthesia provided to the nerve structure: long-acting local anesthetics in SPGB
[2] = tested on: tension headaches and migraines; assay: Earlier treatment of Patient 1 (tension headaches and migraines); assay type: in vivo, human; details: Patient 1, before the composition
Source text: This patient was a person who experienced tension headaches and migraines. The pain was acute producing nauseas and vomits.

## CCCN1CCCC[C@H]1C(=O)Nc1c(C)cccc1C [ropivacaine]
[1]
  duration of anesthesia provided to the nerve structure: at least about an hour

## CCN(CC)CC(=O)Nc1c(C)cccc1C [lidocaine]
[1]; shorter-acting local anesthetic in SPGB
  period for which head pain is decreased (equal to the duration of the analgesia): less than an hour

## CCCCN1CCCCC1C(=O)Nc1c(C)cccc1C (centres unmarked) [bupivacaine]
[1]
  duration of anesthesia provided to the nerve structure: at least about an hour

## COc1ccc2cc(CCC(C)=O)ccc2c1 [relafen]
[2]
  outcome of earlier treatment: without success

## Cc1ccccc1C(OCCN(C)C)c1ccccc1 (centres unmarked) [norflex]
[2]
  outcome of earlier treatment: without success
